Among the data in publication PMC6934871, “High resolution structural and functional analysis of a hemopexin motif protein from Dolichos” (Scientific Reports, 2019) are Kd values, retold here.

The target in this assay is DC25. Briefly: SPR (Biacore T200, DC25 immobilized on CM5, […] Langmuir fit); also inhibits peroxidase activity of purified DC25. The assay is classed as binding, Lablab purpureus. Background: Surface plasmon resonance follows binding to a sensor surface in real time, without labels.

Turning to `O=S(=O)(O)c1ccc(-c2c3nc(c(-c4ccc(S(=O)(=O)O)cc4)c4ccc([nH]4)c(-c4ccc(S(=O)(=O)O)cc4)c4nc(c(-c5ccc(S(=O)(=O)O)cc5)c5ccc2[nH]5)C=C4)C=C3)cc1` [TPPS4], the Kd came to 1210 nM.

What is called Kd is the equilibrium constant for the complex coming apart. A low value points to tighter binding.
